In general, IC50 refers to the concentration at which inhibition is half-maximal.

Experiment [1] addresses T1, human LDH-A (hLDH-A) (Homo sapiens, UniProt P00338).
T1 construct: gene LDHA; recombinant full length human LDHA (amino acids 1–332) with N terminal His tag
Put plainly: recombinant enzyme assay, NADH oxidation at […] nm; velocity at varied NADH ±[…] PGG. Format: biochemical.

Experiment [2] addresses T1, human LDH-A (hLDH-A). Put plainly: recombinant enzyme assay, NADH oxidation at […] nm. Format: biochemical.

Take `O=C(OC[C@H]1O[C@@H](OC(=O)c2cc(O)c(O)c(O)c2)[C@H](OC(=O)c2cc(O)c(O)c(O)c2)[C@@H](OC(=O)c2cc(O)c(O)c(O)c2)[C@@H]1OC(=O)c1cc(O)c(O)c(O)c1)c1cc(O)c(O)c(O)c1` [PGG, penta-1,2,3,4,6-O-galloyl-β-D-glucose]: the IC50 on human LDH-A (hLDH-A) [1] turned out to be 0.0272 µM. As to `O=C(O)C(=O)O` [oxalic acid], at human LDH-A (hLDH-A) [2], the IC50 was above 6000 µM.

The values are drawn from publication PMC4396556, “1,2,3,4,6-Penta-O-galloylglucose within Galla Chinensis Inhibits Human LDH-A and Attenuates Cell Proliferation in MDA-MB-231 Breast Cancer Cells” (Evidence-based Complementary and Alternative Medicine : eCAM, 2015).
